The results in this text go back to PubChem BioAssay (NCI).

Test systems include HOP-18 NSCLC; LXFL 529 NSCLC; M19-MEL melanoma; DLD-1 colon; DMS 114 small cell lung; RXF-631 renal; XF 498 CNS; P388 leukemia; SN12K1 renal.
Experiment in all cases: NCI tumour cell line growth inhibition, 48 h

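Tested at 5 concentrations; 48 h exposure; 96-well plates; endpoints linearly interpolated, else capped at highest concentration. TGI: concentration producing complete growth inhibition.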

As for `c1ccc(-n2cnnc2-c2nsc3ccccc23)cc1`, the TGI in the assay on HOP-18 NSCLC, in the assay with LXFL 529 NSCLC and in the assay with M19-MEL melanoma was greater than 100 µM in each case.
For `C/C1=N\NC(=O)c2ccccc2C(=O)N/N=C(\C)c2cccc1n2.O=[N+]([O-])[O-].[Zn+2]`, the TGI in the assay with DLD-1 colon, in the assay with DMS 114 small cell lung, in the assay with HOP-18 NSCLC and with LXFL 529 NSCLC was greater than 100 µM in each case.
On to `C=C(C)C1CC2=C(O1)C(=O)c1ccccc1C2=O` (stereo unspecified), for which the TGI turned out to be 52.1 µM in the assay on DLD-1 colon; 32.9 µM with DMS 114 small cell lung; 31.4 µM with LXFL 529 NSCLC; 40.3 µM in the assay with RXF-631 renal; 32.2 µM in the assay on XF 498 CNS.
For `Nc1cc(S(=O)(=O)O)cc2cc(S(=O)(=O)O)c(N=Nc3ccc(-c4ccc(N=Nc5c(S(=O)(=O)O)cc6cc(S(=O)(=O)O)cc(N)c6c5O)cc4)cc3)c(O)c12`, the TGI with DLD-1 colon, in the assay on DMS 114 small cell lung, in the assay on HOP-18 NSCLC, in the assay with M19-MEL melanoma, in the assay on P388 leukemia and in the assay on SN12K1 renal was greater than 100 µM in each case. In addition, the TGI in the assay with XF 498 CNS was greater than 100 µM.
Take `CC(C)(C)C1(c2ccc(C3(c4ccccc4)Oc4ccccc4S3)[nH]2)Oc2ccccc2S1` (stereo unspecified): the TGI in the assay with DLD-1 colon, in the assay on DMS 114 small cell lung, in the assay with HOP-18 NSCLC, in the assay with LXFL 529 NSCLC, in the assay with M19-MEL melanoma and in the assay on RXF-631 renal was greater than 100 µM each time. In the assay on XF 498 CNS, this compound had a TGI greater than 100 µM.
As to `O=Nc1ccc(O)c2ncccc12`, the TGI in the assay with DLD-1 colon was found to be 25.3 µM; in the assay on DMS 114 small cell lung it was 12.4 µM; in the assay with HOP-18 NSCLC it was 51.8 µM; in the assay on LXFL 529 NSCLC, 12.9 µM; with M19-MEL melanoma, 16.4 µM.
